# Test results: patent US20230141603A1, “BENZODIAZEPINE DERIVATIVES AS GABA A GAMMA1 PAM” (Hoffmann-La Roche Inc., priority 2021, published 2023)
# pKi: −log10 of the molar value.
# Target: T1, h-GABAA α1β2γ1 (Homo sapiens, UniProt P14867+Q8N1C3)
# T1 construct: expressed in transfected cells; host or cells: HEK293F cells (ThermoFisher R79007), membranes
# T1 sequence (P14867 28-456): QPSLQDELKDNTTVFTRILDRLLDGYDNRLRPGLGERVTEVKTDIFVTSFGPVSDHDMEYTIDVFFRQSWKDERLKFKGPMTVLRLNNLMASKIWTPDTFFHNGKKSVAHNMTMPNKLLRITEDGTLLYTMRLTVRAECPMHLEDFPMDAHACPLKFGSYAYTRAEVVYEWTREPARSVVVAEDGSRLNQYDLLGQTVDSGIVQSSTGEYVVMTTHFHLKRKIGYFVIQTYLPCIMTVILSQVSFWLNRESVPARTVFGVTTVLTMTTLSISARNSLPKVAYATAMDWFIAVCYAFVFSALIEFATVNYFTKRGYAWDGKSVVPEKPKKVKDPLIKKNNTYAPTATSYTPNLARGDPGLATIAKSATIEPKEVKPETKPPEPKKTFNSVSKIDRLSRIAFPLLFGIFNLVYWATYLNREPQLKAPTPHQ
# T1 sequence (P47870 25-512 partner limits assumed): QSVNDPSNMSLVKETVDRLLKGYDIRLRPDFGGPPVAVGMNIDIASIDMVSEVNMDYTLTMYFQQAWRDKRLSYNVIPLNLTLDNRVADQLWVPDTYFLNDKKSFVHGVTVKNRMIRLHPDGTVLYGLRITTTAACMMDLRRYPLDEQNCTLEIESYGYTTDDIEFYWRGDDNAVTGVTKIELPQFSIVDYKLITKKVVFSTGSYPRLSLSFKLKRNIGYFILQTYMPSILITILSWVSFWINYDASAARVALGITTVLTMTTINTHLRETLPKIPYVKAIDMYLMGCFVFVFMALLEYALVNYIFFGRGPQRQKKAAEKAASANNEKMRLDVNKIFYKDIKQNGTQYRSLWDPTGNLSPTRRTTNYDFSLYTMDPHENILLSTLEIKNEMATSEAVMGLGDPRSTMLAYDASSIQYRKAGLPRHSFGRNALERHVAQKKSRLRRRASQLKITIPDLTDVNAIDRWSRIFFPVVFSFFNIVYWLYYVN
# T1 sequence (Q8N1C3 36-465): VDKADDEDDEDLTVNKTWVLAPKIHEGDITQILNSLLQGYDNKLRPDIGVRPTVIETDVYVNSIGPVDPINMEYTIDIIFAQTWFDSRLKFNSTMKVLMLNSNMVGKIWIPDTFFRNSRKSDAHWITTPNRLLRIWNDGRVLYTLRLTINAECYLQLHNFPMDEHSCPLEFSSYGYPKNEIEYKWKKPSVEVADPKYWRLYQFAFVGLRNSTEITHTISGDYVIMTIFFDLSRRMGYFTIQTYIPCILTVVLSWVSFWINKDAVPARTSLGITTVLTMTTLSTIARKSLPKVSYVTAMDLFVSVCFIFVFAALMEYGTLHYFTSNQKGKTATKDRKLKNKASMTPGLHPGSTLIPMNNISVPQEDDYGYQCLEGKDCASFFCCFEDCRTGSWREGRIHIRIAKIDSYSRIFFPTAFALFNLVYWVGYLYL
# Experiment: Radioligand binding assay, [3H]RO7239181 competition, HEK293F membranes
row,Compound,pKi
1,"Fc1cccnc1C1=NCc2nnc(-c3cccnn3)n2-c2ccc(Br)c(Cl)c21 [Example 45, 8-bromo-7-chloro-6-(3-fluoro-2-pyridyl)-1-pyridazin-3-yl-4H-[1,2,4]triazolo[4,3-a][1,4]benzodiazepine]",7.26
2,"Cc1ccc2c(c1Cl)C(c1c(F)cccc1F)=NCc1nnc(-c3cccnn3)n1-2 [Example 48, 7-chloro-6-(2,6-difluorophenyl)-8-methyl-1-pyridazin-3-yl-4H-[1,2,4]triazolo[4,3-a][1,4]benzodiazepine]",7.68
3,"Cc1ccc2c(c1Cl)C(c1c(F)cccc1F)=NCc1nncn1-2 [Example 17, 7-chloro-6-(2,6-difluorophenyl)-8-methyl-4H-[1,2,4]triazolo[4,3-a][1,4]benzodiazepine]",7.32
4,"Fc1cccc(F)c1C1=NCc2nnc(C3CCOCC3)n2-c2ccc(Cl)c(Cl)c21 [Example 11, 7,8-dichloro-6-(2,6-difluorophenyl)-1-tetrahydropyran-4-yl-4H-[1,2,4]triazolo[4,3-a][1,4]benzodiazepine]",7.22
5,"COc1ccc2c(c1Cl)C(c1c(F)cccc1F)=NCc1nnc(-c3ccncn3)n1-2 [Example 61, 7-chloro-6-(2,6-difluorophenyl)-8-methoxy-1-pyrimidin-4-yl-4H-[1,2,4]triazolo[4,3-a][1,4]benzodiazepine]",6.92
6,"CO[C@H]1C[C@H](c2nnc3n2-c2ccc(Cl)c(Cl)c2C(c2c(F)cccc2F)=NC3)C1 [Example 91, trans-7,8-dichloro-6-(2,6-difluorophenyl)-1-(3-methoxycyclobutyl)-4H-[1,2,4]triazolo[4,3-a][1,4]benzodiazepine]",7.29
7,"Fc1ccccc1C1=NCc2nnc(-c3cccnn3)n2-c2ccc(C(F)(F)F)c(Cl)c21 [Example 27, 7-chloro-6-(2-fluorophenyl)-1-pyridazin-3-yl-8-(trifluoromethyl)-4H-[1,2,4]triazolo[4,3-a][1,4]benzodiazepine]",6.54
8,"Cn1cc(-c2nnc3n2-c2ccc(C(F)(F)F)c(Cl)c2C(c2ncccc2F)=NC3)cn1 [Example 70, 7-chloro-6-(3-fluoro-2-pyridyl)-1-(1-methylpyrazol-4-yl)-8-(trifluoromethyl)-4H-[1,2,4]triazolo[4,3-a][1,4]benzodiazepine]",6.56
9,"Fc1ccccc1C1=NCc2nnc(-c3cccnn3)n2-c2ccc(Cl)c(Cl)c21 [Example 10, 7,8-dichloro-6-(2-fluorophenyl)-1-pyridazin-3-yl-4H-[1,2,4]triazolo[4,3-a][1,4]benzodiazepine]",7.59
10,"Fc1cccc(F)c1C1=NCc2nncn2-c2ccc(I)c(Cl)c21 [Example 34, 7-chloro-6-(2,6-difluorophenyl)-8-iodo-4H-[1,2,4]triazolo[4,3-a][1,4]benzodiazepine]",8.25
11,"Fc1ccccc1C1=NCc2nnc(C3CC3)n2-c2ccc(Br)c(Cl)c21 [Example 2, 8-bromo-7-chloro-1-cyclopropyl-6-(2-fluorophenyl)-4H-[1,2,4]triazolo[4,3-a][1,4]benzodiazepine]",7.11
12,"Fc1cccnc1C1=NCc2nncn2-c2ccc(Br)c(Cl)c21 [Example 29, 8-bromo-7-chloro-6-(3-fluoro-2-pyridyl)-4H-[1,2,4]triazolo[4,3-a][1,4]benzodiazepine]",7.18
13,"Fc1cccnc1C1=NCc2nnc(C3CC3)n2-c2ccc(Br)c(Cl)c21 [Example 77, 8-bromo-7-chloro-1-cyclopropyl-6-(3-fluoro-2-pyridyl)-4H-[1,2,4]triazolo[4,3-a][1,4]benzodiazepine]",7.38
14,"Cc1nnc2n1-c1ccc(Br)c(Cl)c1C(c1c(F)cccc1Cl)=NC2 [Example 50, 8-bromo-7-chloro-6-(2-chloro-6-fluoro-phenyl)-1-methyl-4H-[1,2,4]triazolo[4,3-a][1,4]benzodiazepine]",8.05
15,"Fc1cccnc1C1=NCc2nnc(-c3cccnn3)n2-c2ccc(Cl)c(Cl)c21 [Example 54, 7,8-dichloro-6-(3-fluoro-2-pyridyl)-1-pyridazin-3-yl-4H-[1,2,4]triazolo[4,3-a][1,4]benzodiazepine]",6.92
16,"Fc1cccnc1C1=NCc2nnc(-c3ccncn3)n2-c2ccc(Br)c(Cl)c21 [Example 46, 8-bromo-7-chloro-6-(3-fluoro-2-pyridyl)-1-pyrimidin-4-yl-4H-[1,2,4]triazolo[4,3-a][1,4]benzodiazepine]",7.22
